Assay results taken from the NIST ThermoML archive (doi:10.1016/j.tca.2017.03.027).
Numbers after ± are expanded uncertainties.

Key:
[1] = Crystal; DTA
[2] = Molar enthalpy of transition or fusion; settings: Crystal; DSC

Normal melting temperature [1] [°C] | Molar enthalpy of transition or fusion [2] [kJ/mol] | SMILES
31.10 ± 4 | 28.7 ± 1.3 | CCCCCCCCCC(=O)O [decanoic acid]
69.00 ± 4 | 63.4 ± 2.8 | CCCCCCCCCCCCCCCCCC(=O)O [octadecanoic acid]
53.70 ± 4 | 42.8 ± 1.9 | CCCCCCCCCCCCCC(=O)O [tetradecanoic acid]
